# In PubChem BioAssay AID256 (DTP/NCI, 2004):
# “And” between values parts separate entries of the source, which are not always exact repeats. Identical values can stand only once. Toxic doses and inconclusive results are not listed.
# Test system: CD2F1 mice, L1210 leukemia ip, survival T/C
# Test: NCI In Vivo Anticancer Drug Screen. Data for tumor model L1210 Leukemia (intraperitoneal) in CD2F1 (CDF1) mice
# Conditions: higher = longer survival
# Procedure, shortened: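 Ratio T/C, where T is the treated-group value and C the vehicle-dosed control value, from mice implanted with a transplantable tumor.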
# [1] = endpoint: mean survival time, dose: 100.0 mg/kg/injection, schedule: Q04DX003 (ip), vehicle: saline with Tween-80
# [2] = endpoint: mean survival time, dose: 200.0 mg/kg/injection, schedule: Q04DX003 (ip), vehicle: saline with Tween-80
# [3] = endpoint: mean survival time, dose: 50.0 mg/kg/injection, schedule: Q01DX009 (ip), vehicle: saline with Tween-80
# [4] = endpoint: mean survival time, dose: 100.0 mg/kg/injection, schedule: Q01DX009 (ip), vehicle: saline with Tween-80
# [5] = endpoint: mean survival time, dose: 200.0 mg/kg/injection, schedule: Q01DX009 (ip), vehicle: saline with Tween-80
# [6] = endpoint: mean survival time, dose: 200.0 mg/kg/injection, schedule: Q01DX009 (ip), vehicle: Klucel (hydroxypropylcellulose) (HPC)
# [7] = endpoint: mean survival time, dose: 100.0 mg/kg/injection, schedule: Q01DX001 (ip), vehicle: saline with Tween-80
# [8] = endpoint: mean survival time, dose: 200.0 mg/kg/injection, schedule: Q01DX001 (ip), vehicle: saline with Tween-80
# [9] = endpoint: mean survival time, dose: 400.0 mg/kg/injection, schedule: Q01DX001 (ip), vehicle: saline with Tween-80
smiles,measurement,setting,value
CCOC(=O)c1c(C)c2c(n1C)CC/C(=C\N1CCN(c3ccccc3)CC1)C2=O,T/C,"endpoint: mean survival time, dose: 100.0 mg/kg/injection, schedule: Q04DX002 (ip), vehicle: saline with Tween-80",93 % of control
same,T/C,"endpoint: mean survival time, dose: 200.0 mg/kg/injection, schedule: Q04DX002 (ip), vehicle: saline with Tween-80",89 % of control
same,T/C,"endpoint: mean survival time, dose: 400.0 mg/kg/injection, schedule: Q04DX002 (ip), vehicle: saline with Tween-80",86 % of control
O=P(Oc1ccccc1)(Oc1ccccc1)C(Nc1ccccc1)c1ccncc1 (centres undefined),T/C,[1],93 % of control
same,T/C,[2],100 % of control
same,T/C,"endpoint: mean survival time, dose: 400.0 mg/kg/injection, schedule: Q04DX003 (ip), vehicle: saline with Tween-80",102 % of control
C=CCOCC(O)C[As](=O)(O)c1cccc(Cl)c1 (centres undefined),T/C,"endpoint: mean survival time, dose: 6.25 mg/kg/injection, schedule: Q04DX003 (ip), vehicle: saline with Tween-80",103 % of control
same,T/C,"endpoint: mean survival time, dose: 12.5 mg/kg/injection, schedule: Q04DX003 (ip), vehicle: saline with Tween-80",119 % of control
CCOC(=O)C(=O)O,T/C,"endpoint: mean survival time, dose: 200.0 mg/kg/injection, schedule: Q01DX009 (ip), vehicle: saline",104 % of control
COc1ccccc1OCCN1Cc2ccccc2C1,T/C,[3],94 % of control
same,T/C,[4],100 % of control
same,T/C,[5],97 % of control
Cc1cc(C)c(CN)cc1C,T/C,"endpoint: mean survival time, dose: 5.0 mg/kg/injection, schedule: Q01DX009 (ip), vehicle: saline with Tween-80",96 % of control
same,T/C,"endpoint: mean survival time, dose: 10.0 mg/kg/injection, schedule: Q01DX009 (ip), vehicle: saline with Tween-80",105 % of control
same,T/C,"endpoint: mean survival time, dose: 20.0 mg/kg/injection, schedule: Q01DX009 (ip), vehicle: saline with Tween-80",92 % of control
NCc1cn(C2OC(CO)C(O)C2O)c2ncnc(N)c12 (centres undefined),T/C,"endpoint: mean survival time, dose: 3.13 mg/kg/injection, schedule: Q01DX005 (ip), vehicle: water",118 % of control
same,T/C,"endpoint: mean survival time, dose: 6.25 mg/kg/injection, schedule: Q01DX005 (ip), vehicle: water",95 % of control
CCOC/C(C)=C/Cl,T/C,"endpoint: mean survival time, dose: 100.0 mg/kg/injection, schedule: Q01DX009 (ip), vehicle: acetone",106 % of control
same,T/C,"endpoint: mean survival time, dose: 200.0 mg/kg/injection, schedule: Q01DX009 (ip), vehicle: acetone",103 % of control
Cc1ccc(NC(=O)N(CCCl)N=O)c(C)c1,T/C,"endpoint: mean survival time, dose: 4.4 mg/kg/injection, schedule: Q01DX009 (ip), vehicle: other",167 % of control
same,T/C,"endpoint: mean survival time, dose: 6.6 mg/kg/injection, schedule: Q01DX009 (ip), vehicle: other",161 % of control
same,T/C,"endpoint: mean survival time, dose: 33.0 mg/kg/injection, schedule: Q01DX001 (ip), vehicle: other",183 % of control
same,T/C,"endpoint: mean survival time, dose: 50.0 mg/kg/injection, schedule: Q01DX001 (ip), vehicle: other",200 % of control
same,T/C,"endpoint: mean survival time, dose: 75.0 mg/kg/injection, schedule: Q01DX001 (ip), vehicle: other",178 % of control
Cc1cc([N+](=O)[O-])cc(Br)c1N,T/C,"endpoint: mean survival time, dose: 44.0 mg/kg/injection, schedule: Q04DX003 (ip), vehicle: saline with Tween-80",93 % of control
same,T/C,"endpoint: mean survival time, dose: 66.0 mg/kg/injection, schedule: Q04DX003 (ip), vehicle: saline with Tween-80",95 % of control
same,T/C,[1],93 % of control
same,T/C,"endpoint: mean survival time, dose: 150.0 mg/kg/injection, schedule: Q04DX003 (ip), vehicle: saline with Tween-80",95 % of control
CCOC(=O)N(C)CC1C(=O)Nc2ccccc21 (centres undefined),T/C,"endpoint: mean survival time, dose: 100.0 mg/kg/injection, schedule: Q04DX003 (ip), vehicle: Klucel (hydroxypropylcellulose) (HPC)",105 % of control
same,T/C,"endpoint: mean survival time, dose: 200.0 mg/kg/injection, schedule: Q04DX003 (ip), vehicle: Klucel (hydroxypropylcellulose) (HPC)",110 % of control
same,T/C,"endpoint: mean survival time, dose: 400.0 mg/kg/injection, schedule: Q04DX003 (ip), vehicle: Klucel (hydroxypropylcellulose) (HPC)",102 % of control
O=C1NCC1c1ccccc1 (centres undefined),T/C,"endpoint: median survival time, dose: 25.0 mg/kg/injection, schedule: Q04DX003 (ip), vehicle: saline with Tween-80",90 % of control
same,T/C,"endpoint: median survival time, dose: 50.0 mg/kg/injection, schedule: Q04DX003 (ip), vehicle: saline with Tween-80",90 % of control
same,T/C,"endpoint: median survival time, dose: 100.0 mg/kg/injection, schedule: Q04DX003 (ip), vehicle: saline with Tween-80",100 % of control
same,T/C,"endpoint: median survival time, dose: 200.0 mg/kg/injection, schedule: Q04DX003 (ip), vehicle: saline with Tween-80",90 % of control
Cc1ccccc1C1(O)CCCCC1,T/C,"endpoint: mean survival time, dose: 25.0 mg/kg/injection, schedule: Q01DX009 (ip), vehicle: saline with Tween-80",114 % of control
same,T/C,[3],98 % of control and 108 % of control
same,T/C,[4],90 % of control
same,T/C,[1],93 % of control
same,T/C,[5],90 % of control
same,T/C,[2],94 % of control
C#CCN(C)/N=N/c1nc[nH]c1C(N)=O,T/C,"endpoint: mean survival time, dose: 12.5 mg/kg/injection, schedule: Q01DX009 (ip), vehicle: Klucel (hydroxypropylcellulose) (HPC)",123 % of control
same,T/C,[6],98 % of control
O=S(=O)(Cc1ccccc1)CS(=O)(=O)Cc1ccccc1,T/C,[7],98 % of control
same,T/C,[8],97 % of control
same,T/C,[9],86 % of control
O=C(Nc1ccc(Cl)cc1)Oc1ccc2ccccc2c1,T/C,"endpoint: mean survival time, dose: 100.0 mg/kg/injection, schedule: Q01DX001 (ip), vehicle: saline",96 % of control
same,T/C,"endpoint: mean survival time, dose: 200.0 mg/kg/injection, schedule: Q01DX001 (ip), vehicle: saline",94 % of control
same,T/C,"endpoint: mean survival time, dose: 400.0 mg/kg/injection, schedule: Q01DX001 (ip), vehicle: saline",111 % of control
COP(=O)(OC)OCC1OC(n2ccc(N)nc2=O)C(O)C1O (centres undefined),T/C,"endpoint: median survival time, dose: 12.5 mg/kg/injection, schedule: Q01DX005 (ip), vehicle: saline",111 % of control
same,T/C,"endpoint: median survival time, dose: 25.0 mg/kg/injection, schedule: Q01DX005 (ip), vehicle: saline",104 % of control
same,T/C,"endpoint: median survival time, dose: 50.0 mg/kg/injection, schedule: Q01DX005 (ip), vehicle: saline",110 % of control
same,T/C,"endpoint: median survival time, dose: 100.0 mg/kg/injection, schedule: Q01DX005 (ip), vehicle: saline",115 % of control and 108 % of control
same,T/C,"endpoint: median survival time, dose: 200.0 mg/kg/injection, schedule: Q01DX005 (ip), vehicle: saline",113 % of control
COC12C(COC(N)=O)C3=C(C(=O)C(C)=C(N4CC4)C3=O)N1CC1NC12 (centres undefined),T/C,"endpoint: mean survival time, dose: 0.14 mg/kg/injection, schedule: Q01DX007 (ip), vehicle: acetone",124 % of control
same,T/C,"endpoint: mean survival time, dose: 0.25 mg/kg/injection, schedule: Q01DX001 (ip), vehicle: acetone",106 % of control
same,T/C,"endpoint: mean survival time, dose: 0.33 mg/kg/injection, schedule: Q01DX001 (ip), vehicle: acetone",116 % of control
same,T/C,"endpoint: mean survival time, dose: 0.5 mg/kg/injection, schedule: Q01DX007 (ip), vehicle: acetone",153 % of control
same,T/C,"endpoint: mean survival time, dose: 1.0 mg/kg/injection, schedule: Q01DX001 (ip), vehicle: carboxymethylcellulose (CMC)",151 % of control
same,T/C,"endpoint: mean survival time, dose: 1.5 mg/kg/injection, schedule: Q01DX001 (ip), vehicle: carboxymethylcellulose (CMC)",114 % of control
CCOc1cccc(Cc2cn(Cc3ccc(NC(=O)c4ccc(S(=O)(=O)F)cc4)cc3)c(=O)[nH]c2=O)c1,T/C,[7],101 % of control
same,T/C,[8],95 % of control
same,T/C,[9],95 % of control
O=C(O)/C=C/c1cccs1,T/C,"endpoint: mean survival time, dose: 50.0 mg/kg/injection, schedule: Q01DX009 (ip), vehicle: Klucel (hydroxypropylcellulose) (HPC)",101 % of control
same,T/C,"endpoint: mean survival time, dose: 100.0 mg/kg/injection, schedule: Q01DX009 (ip), vehicle: Klucel (hydroxypropylcellulose) (HPC)",101 % of control
same,T/C,[6],96 % of control
NCc1ccc(OCc2nc(N)nc(N)c2-c2ccc(Cl)c(Cl)c2)cc1,T/C,[7],92 % of control
same,T/C,[8],91 % of control
O=C(CNC(=O)c1ccccc1)N/N=C/c1cccc([N+](=O)[O-])c1,T/C,[4],90 % of control
same,T/C,"endpoint: mean survival time, dose: 400.0 mg/kg/injection, schedule: Q01DX009 (ip), vehicle: saline with Tween-80",89 % of control
C[S+](C)CCC(N)C(=O)O (centres undefined) (tested in a mixture with another compound),T/C,"endpoint: median survival time, dose: 3.13 mg/kg/injection, schedule: Q04DX002 (ip), vehicle: saline",111 % of control
same,T/C,"endpoint: median survival time, dose: 6.25 mg/kg/injection, schedule: Q04DX002 (ip), vehicle: saline",111 % of control
same,T/C,"endpoint: median survival time, dose: 12.5 mg/kg/injection, schedule: Q04DX002 (ip), vehicle: saline",111 % of control
same,T/C,"endpoint: median survival time, dose: 25.0 mg/kg/injection, schedule: Q04DX002 (ip), vehicle: saline",111 % of control and 108 % of control
same,T/C,"endpoint: median survival time, dose: 50.0 mg/kg/injection, schedule: Q04DX002 (ip), vehicle: saline",111 % of control and 94 % of control
same,T/C,"endpoint: median survival time, dose: 100.0 mg/kg/injection, schedule: Q04DX002 (ip), vehicle: saline",117 % of control and 100 % of control
same,T/C,"endpoint: median survival time, dose: 400.0 mg/kg/injection, schedule: Q04DX002 (ip), vehicle: saline",100 % of control
COC(/C=C\C(OC)OC)OC,T/C,"endpoint: mean survival time, dose: 12.5 mg/kg/injection, schedule: Q01DX009 (ip), vehicle: saline",101 % of control
same,T/C,"endpoint: mean survival time, dose: 25.0 mg/kg/injection, schedule: Q01DX009 (ip), vehicle: saline",96 % of control
